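Cells were grown in 96-well plates and exposed to each compound for 48 hours at five concentrations; endpoints were interpolated linearly between bracketing concentrations, or set to the highest concentration if not reached. The concentration for 50% growth inhibition is given as GI50. The concentration for full growth arrest is given as TGI.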

These results are taken from PubChem BioAssay (NCI).

Test systems include K-562 leukemia; HOP-62 NSCLC; SK-MEL-2 melanoma; EKVX NSCLC; RXF 393 renal; UACC-62 melanoma; MALME-3M melanoma; SNB-19 CNS; SW-620 colon; MOLT-4 leukemia.
Common to all, as to assay: DTP human tumour cell line panel, 48 h

For orientation: TGI means the concentration giving total growth inhibition. A higher TGI goes with lower sensitivity of the cells. For the compound `Cc1cc2ccccc2c[n+]1CC(O)C[n+]1cc2ccccc2cc1C`, the TGI with K-562 leukemia, in the assay on HOP-62 NSCLC, in the assay on SK-MEL-2 melanoma, with EKVX NSCLC, with RXF 393 renal and in the assay on UACC-62 melanoma was over 100 µM throughout. For the same compound, the concentration for total growth inhibition (TGI) in the assay with MALME-3M melanoma, with SNB-19 CNS, in the assay with SW-620 colon and with MOLT-4 leukemia was over 100 µM each time.

With `O=C(c1ccc2ccccc2c1)C1S(=O)(=O)OCCOS1(=O)=O`, the TGI with K-562 leukemia, with HOP-62 NSCLC, in the assay on SK-MEL-2 melanoma, in the assay on EKVX NSCLC, in the assay on MALME-3M melanoma and in the assay on SNB-19 CNS was over 100 µM each time. The same compound came in with a total growth inhibition concentration (TGI) in the assay with MOLT-4 leukemia of over 100 µM.

Regarding `Cc1cc(C)c(S(=O)(=O)N(CCCCN)OCCCN)c(C)c1`, the TGI amounted to 44.4 µM with K-562 leukemia; 30.9 µM in the assay on SK-MEL-2 melanoma; 31 µM in the assay with EKVX NSCLC; 31.6 µM in the assay on RXF 393 renal; 30.7 µM in the assay with UACC-62 melanoma; 36.3 µM in the assay on MALME-3M melanoma. Moreover, the concentration for total growth inhibition (TGI) was 34.5 µM with SNB-19 CNS, 32.6 µM in the assay with SW-620 colon and 28.6 µM in the assay on MOLT-4 leukemia.

As to `COC(=O)C(/C(=N/NC(=O)c1ccncc1)C(=O)Nc1ccccc1OC)c1nc2ccc(Cl)cc2[nH]c1=O` (configuration not stated), the concentration for total growth inhibition (TGI) in the assay with K-562 leukemia, with HOP-62 NSCLC, with SK-MEL-2 melanoma, in the assay on EKVX NSCLC, with RXF 393 renal and in the assay with UACC-62 melanoma was over 100 µM in each case. Moreover, the total growth inhibition concentration (TGI) in the assay on MALME-3M melanoma, in the assay with SW-620 colon and in the assay with MOLT-4 leukemia was over 100 µM in each case.

For `O=[N+]([O-])c1cccc([N+](=O)[O-])c1S(=O)(=O)c1ccccc1`, the concentration for total growth inhibition (TGI) in the assay on HOP-62 NSCLC came to 35.1 µM; in the assay with EKVX NSCLC, 42.8 µM; with MALME-3M melanoma, 6.19 µM; with SNB-19 CNS it was 35.3 µM; in the assay on SW-620 colon, 5.9 µM.

For the compound `N#CCCC1C(C#N)C2CC1C1C3C=CC(C3)C21` (configuration not stated), the TGI in the assay with K-562 leukemia, with SK-MEL-2 melanoma, with EKVX NSCLC, with RXF 393 renal, with UACC-62 melanoma and in the assay on MALME-3M melanoma was over 100 µM in each case. In addition, the TGI in the assay with SNB-19 CNS, with SW-620 colon and with MOLT-4 leukemia was over 100 µM in each case.

Consider `CC(=O)NC1C(CO)O[C@@H]2OC(C)(C)O[C@H]12` (some centres not stated), for which the TGI in the assay with HOP-62 NSCLC, in the assay with SK-MEL-2 melanoma, with EKVX NSCLC, in the assay on UACC-62 melanoma, with MALME-3M melanoma and with SNB-19 CNS was over 100 µM in each case. The TGI in the assay with SW-620 colon and in the assay with MOLT-4 leukemia was over 100 µM in each case.

As for `O=C1NC(=S)N/C1=C/c1ccccc1O`, the total growth inhibition concentration (TGI) in the assay with HOP-62 NSCLC, in the assay on SK-MEL-2 melanoma, in the assay on EKVX NSCLC, with RXF 393 renal, in the assay with UACC-62 melanoma and with MALME-3M melanoma was over 100 µM in each case. Besides, the TGI with SNB-19 CNS, with SW-620 colon and in the assay on MOLT-4 leukemia was over 100 µM in each case.

In the case of `O=C(Nn1c(-c2ccccc2)nc2ccccc2c1=O)c1ccccn1`, the TGI in the assay with K-562 leukemia, with HOP-62 NSCLC, in the assay on EKVX NSCLC, with RXF 393 renal, with UACC-62 melanoma and in the assay with MALME-3M melanoma was over 100 µM each time. Also, the TGI in the assay with SNB-19 CNS, with SW-620 colon and in the assay on MOLT-4 leukemia was over 100 µM each time.

With `Cc1cc(Cc2c(F)c(F)c(Cc3cc(C)no3)c(F)c2F)on1`, the TGI in the assay on K-562 leukemia was over 100 µM; in the assay with HOP-62 NSCLC it was 62.8 µM; in the assay with SK-MEL-2 melanoma it was over 100 µM; in the assay on EKVX NSCLC, over 100 µM; in the assay on RXF 393 renal, over 100 µM; in the assay with UACC-62 melanoma, over 100 µM. Besides, the TGI with MALME-3M melanoma, in the assay on SNB-19 CNS and in the assay on MOLT-4 leukemia was over 100 µM each time.

By GI50 is commonly meant the concentration at which growth is held to half of that of the control. For `O=C1c2[nH]cc(CN3CCNCC3)c2C(=O)c2c1c(O)c1ccccc1c2O`, the GI50 in the assay with K-562 leukemia was 3.42 µM; in the assay on EKVX NSCLC, 0.769 µM; with RXF 393 renal it was 23.9 µM; in the assay on UACC-62 melanoma, 1.71 µM; in the assay with MALME-3M melanoma it was 6.3 µM; with SNB-19 CNS it was 2.22 µM. For the same compound, the GI50 in the assay with MOLT-4 leukemia was 3.08 µM. For the same compound, the total growth inhibition concentration (TGI) in the assay on K-562 leukemia is over 100 µM; with HOP-62 NSCLC, 1.14 µM; in the assay on EKVX NSCLC it was 2.49 µM; in the assay on RXF 393 renal it was 71.2 µM; in the assay with UACC-62 melanoma it was 3.28 µM; in the assay with MALME-3M melanoma, 13.3 µM. The values for the TGI in the assay with SNB-19 CNS and in the assay with MOLT-4 leukemia were 6 µM and over 20 µM, respectively.

Take `COc1cc2cc(C(=O)N3CC(CCl)c4c3cc(N)c3ccccc43)[nH]c2cc1OCCN(C)C` (configuration not stated): the total growth inhibition concentration (TGI) was 1.12 µM in the assay on K-562 leukemia; 0.00741 µM in the assay with HOP-62 NSCLC; 0.00726 µM in the assay on SK-MEL-2 melanoma; 10.7 µM with EKVX NSCLC; under 0.005 µM with RXF 393 renal; 0.00871 µM with UACC-62 melanoma. In the assay with MOLT-4 leukemia, this compound yielded a TGI of 17.4 µM.

For `CC1(C)O[C@@H](CO)[C@H]([C@@]23OC[C@H]4OC(C)(C)OC4[C@@H]2OC(C)(C)O3)O1` (some centres not stated), the TGI with K-562 leukemia, in the assay with HOP-62 NSCLC, with SK-MEL-2 melanoma, in the assay on EKVX NSCLC, in the assay on RXF 393 renal and with MALME-3M melanoma was over 100 µM in each case. Further, the TGI in the assay on SNB-19 CNS, with SW-620 colon and with MOLT-4 leukemia was over 100 µM in each case.

Consider `O=S1(=O)NNC(=NCc2ccc(Cl)cc2)c2ccccc21`, for which the TGI in the assay on K-562 leukemia, in the assay with SK-MEL-2 melanoma, in the assay with EKVX NSCLC, in the assay with RXF 393 renal, with UACC-62 melanoma and in the assay with MALME-3M melanoma was over 100 µM in each case. The concentration for total growth inhibition (TGI) with SNB-19 CNS, in the assay with SW-620 colon and in the assay with MOLT-4 leukemia was over 100 µM throughout.

Turning to `Cc1cccc(C(C)(C)C)c1NC(=O)/C(Cc1nc2ccc([N+](=O)[O-])cc2[nH]c1=O)=N/NC(=O)C[N+](C)(C)C`, the total growth inhibition concentration (TGI) with K-562 leukemia, with SK-MEL-2 melanoma, in the assay on EKVX NSCLC, in the assay on UACC-62 melanoma, in the assay with MALME-3M melanoma and with SNB-19 CNS was over 100 µM each time. The total growth inhibition concentration (TGI) in the assay on SW-620 colon and with MOLT-4 leukemia was over 100 µM in each case.
